The nature of data set [1]: Dissociation constant, pKa of the compound. The format is physicochemical.
The next data set concerns the target T1, Tyrosinase (Agaricus bisporus, UniProt O42713).
T1 sequence (O42713 whole entry): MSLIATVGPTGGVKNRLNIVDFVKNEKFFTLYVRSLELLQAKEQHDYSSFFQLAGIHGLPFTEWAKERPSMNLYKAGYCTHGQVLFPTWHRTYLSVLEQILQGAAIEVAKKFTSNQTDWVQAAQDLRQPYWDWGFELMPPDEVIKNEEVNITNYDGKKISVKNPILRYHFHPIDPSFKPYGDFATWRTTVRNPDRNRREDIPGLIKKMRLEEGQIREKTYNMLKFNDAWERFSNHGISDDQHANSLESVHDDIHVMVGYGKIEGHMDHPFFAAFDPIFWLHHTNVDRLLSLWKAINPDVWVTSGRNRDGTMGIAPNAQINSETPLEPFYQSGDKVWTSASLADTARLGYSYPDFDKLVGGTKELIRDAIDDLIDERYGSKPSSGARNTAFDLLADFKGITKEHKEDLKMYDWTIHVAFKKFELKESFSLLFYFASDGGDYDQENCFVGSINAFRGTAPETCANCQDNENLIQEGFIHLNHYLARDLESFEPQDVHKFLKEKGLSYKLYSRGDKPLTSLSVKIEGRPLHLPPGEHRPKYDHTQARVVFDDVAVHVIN

Data set [2] has as its target T2, Tyrosinase (Agaricus bisporus) (UniProt O42713).
T2 sequence (whole entry): T1 sequence (O42713 whole entry)
The data set can be described thus: Ratio IC50 for Kojic acid to compound for diphenolase activity of mushroom tyrosinase.

What is called pKa is the pH at which an ionisable group is half protonated. Higher therefore signals a weaker acid or stronger base. The IC50 is the concentration that gives 50% inhibition.

For `NC(=S)N/N=C/c1ccc[nH]1`, in data set [1], the pKa stood at 0.5. The molecule further returned an IC50 against Tyrosinase of 8 µM.

The molecule `Cn1ccc2cc(/C=N/NC(N)=S)ccc21` returned an IC50 on Tyrosinase greater than 2000 µM.

Regarding `NC(=S)N/N=C/CCc1ccccc1`, at Tyrosinase, inhibition was half-maximal at 400 µM (IC50).

In data set [1], `NC(=S)N/N=C/c1ccco1` registered a pKa of 0.5. This molecule had an IC50 against Tyrosinase of 6 µM.

Take `NC(=S)N/N=C/Cc1ccccc1`: on Tyrosinase, half-maximal inhibition (IC50) required 7 µM.

Turning to `NC(=S)N/N=C/c1cccc(F)c1`, the 50% inhibitory concentration (IC50) against Tyrosinase came to 9 µM.

`NC(=S)N/N=C/c1ccc2ccccc2c1` came in with an IC50 against Tyrosinase of 1100 µM.

As for `N/C(S)=N/N=C/c1ccccn1`, the pKa in data set [1] was 5. Further, the IC50 on Tyrosinase was 45 µM.

In turn, `NC(=S)N/N=C/c1ccc2[nH]ccc2c1` yielded an IC50 on Tyrosinase greater than 2000 µM.

Consider `NC(=S)N/N=C/c1ccc(F)cc1`, for which the 50% inhibitory concentration (IC50) on Tyrosinase was 11 µM.

Turning to `Cn1c(/C=N/N=C(/N)S)cc2ccccc21`, the IC50 against Tyrosinase stood at 1700 µM.

With `Cc1[nH]c2ccccc2c1/C=N/NC(N)=S`, the IC50 on Tyrosinase was greater than 2000 µM.

The molecule `NC(=S)N/N=C/c1cccc2ccccc12` showed an IC50 against Tyrosinase of 12 µM.

Regarding `NC(=S)N/N=C/c1ccccc1F`, the midpoint of inhibition against Tyrosinase, the IC50, lay at 32 µM.

At Tyrosinase, `NC(=S)N/N=C/c1c[nH]c2ccccc12` yielded an IC50 of 600 µM.

Regarding `COc1coc(/C=N/NC(N)=S)cc1=O`, the IC50 against Tyrosinase was greater than 2000 µM.

Turning to `NC(=S)N/N=C/c1cc(=O)c(O)co1`, the Ratio IC50 in data set [2] is 9. The same molecule yielded an IC50 against Tyrosinase of 11 µM.

Regarding `Cn1cc(/C=N/NC(N)=S)c2ccccc21`, the half-maximal inhibitory concentration (IC50) against Tyrosinase is greater than 2000 µM.

As to `NC(=S)N/N=C/c1ccc2ccccc2n1`, the half-maximal inhibitory concentration (IC50) against Tyrosinase turned out to be 70 µM.

The molecule `NC(=S)N/N=C/c1cc2ccccc2[nH]1` registered an IC50 against Tyrosinase of 402 µM.

The record behind these values is ChEMBL document CHEMBL1817639, “Refinement of arylthiosemicarbazone pharmacophore in inhibition of mushroom tyrosinase” (Eur J Med Chem, 2011).
